From US6124278A, “Acylbenzoxazines for enhancing synaptic response” (The Regents of the University of California, priority 1998, dated 2000)
Several values for one entry are separate records, joined by “and”; a condition that tells them apart may be missing. Equal entries are not always repeated. Where two headings read alike, the source gives them in different places. Blank lines part the entries; values can stand above or below the compound they belong to.

Assays:
[1] = comparison compound, Example 1 of U.S. Pat. No. 5,736,543; rat; cited from earlier work
AMPA receptors [2] = details: metabolite; cited from earlier work
AMPA receptors [3] = experiment: Field EPSP response in rat hippocampal slices (CA1); format: cell-based, rat (Sprague-Dawley); details: for EPSP Response (percentage increase in the area of the EPSP response): rat hippocampal slices
Description: The physiological effects of invention compounds can be tested in vitro with slices of rat hippocampus according to the following procedure. Excitatory responses (field EPSPs) are measured in hippocampal slices, which are maintained in a recording chamber continuously perfused with artificial cerebrospinal fluid (ACSF). During a 15-30 minute interval, the perfusion medium is switched to one containing various concentrations of the test compounds. Responses collected immediately before and at the end of drug perfusion were superimposed in order to calculate both the percent increase in EPSP amplitude and percent increase in the width of the response at one-half the peak height (half-width).
To conduct these tests, the hippocampus was removed from anesthetized, 2 month old Sprague-Dawley rats and in vitro slices (400 micrometers thick) were prepared and maintained in an interface chamber at 35° C. using conventional techniques [see, for example, Dunwiddie and Lynch, J. Physiol. 276: 353-367 (1978)]. The chamber was constantly perfused at 0.5 mL/min with ACSF containing (in mM): NaCl 124, KCl 3, KH2 PO4 1.25, MgSO4 2.5, CaCl2 3.4, NaHCO3 26, glucose 10 and L-ascorbate 2. A bipolar nichrome stimulating electrode was positioned in the dendritic layer (stratum radiatum) of the hippocampal subfield CA1 close to the border of subfield CA3.
Current pulses (0.1 msec) through the stimulating electrode activate a population of the Schaffer-commissural (SC) fibers that arise from neurons in the subdivision CA3 and terminate in synapses on the dendrites of CA1 neurons. Activation of these synapses causes them to release the transmitter glutamate. Glutamate binds to the post-synaptic AMPA receptors which then transiently open an associated ion channel and permit a sodium current to enter the postsynaptic cell. This current results in a voltage in the extracellular space (the field excitatory post-synaptic potential or field "EPSP") which is recorded by a high impedance recording electrode positioned in the middle of the stratum radiatum of CA1.
For the experiments summarized Table 1, the intensity of the stimulation current was adjusted to produce half-maximal EPSPs (typically about 1.5-2.0 mV). Paired stimulation pulses were given every 40 sec with an interpulse interval of 200 msec (see below). The field EPSPs of the second response were digitized and analyzed to determine amplitude, half-width, and response area. If the responses were stable for 15-30 minutes (baseline), test compounds were added to the perfusion lines for a period of about 15 minutes. The perfusion was then changed back to regular ACSF.
Paired-pulse stimulation was used since stimulation of the SC fibers, in part, activates interneurons which generate an inhibitory postsynaptic potential (IPSP) in the pyramidal cells of CA1. This feed forward IPSP typically sets in after the EPSP reaches its peak. It accelerates the repolarization and shortens the decay phase of the EPSP, and thus could partially mask the effects of the test compounds. One of the relevant features of the feed-forward IPSP is that it can not be reactivated for several hundred milliseconds following a stimulation pulse. […]
The field EPSP recorded in field CA1 after stimulation of CA3 axons is known to be mediated by AMPA receptors: the receptors are present in the synapses [Kessler et al., Brain Res. 560: 337-341 (1991)] and drugs that selectively block the receptor selectively block the field EPSP [Muller et al., Science, supra]. […]

[4] = Plasma clearance half-life and oral bioavailability (AUC oral vs iv) in rat; format: in vivo
Text: (§1) The third data column reports the magnitude of the increase in the amplitude of the EPSP at the lowest concentrations that produced a significant increase. The characteristic of a compound to produce an increase in the EPSP response has been a reliable predictor of the ability to improve memory in the 8-arm radial maze task.
*Plasma clearance following iv administration in rat
^# AUC for oral administration as a percentage of AUC for iv

[5] = Memory enhancement in eight-arm radial maze; format: in vivo; details: rat, read-out: Maze MED (Minimum Effective Dose to improve performance of rats in the eight-arm radial maze)
Text: as §1
^.dagger-dbl. Minimum Effective Dose to improve performance of rats i
the eightarm radial maze.

Structure (SMILES): O=C1c2cc3c(cc2OC2CCCN12)OCO3 (centres unmarked) [Example 1 of U.S. Pat. No. 5,736,543]
bioavailability [1]: 35% | half-life [1]: 31 min

Structure (SMILES): COc1ccc(C(=O)NCCCC(=O)O)cc1 [anisoyl-GABA]
Aniracetam-like effects (AMPA receptors [2]): only weak aniracetam-like effects

Structure (SMILES): O=C1CCCC2Oc3cc4c(cc3CN12)OCCO4 (centres unmarked) [Compound 3, 6a,7,8,9-Tetrahydro-1,4-dioxan[2,3-g]pyrido[2,1-b][1,3]benzoxazine-10(10H,12H)-dione]
EPSP Response (percentage increase in the area of the EPSP response) (AMPA receptors [3]; 30 μM): 10%

half-life ([4]; iv administration): 58 min | bioavailability ([4]; oral vs iv, read-out: Bioavailability (AUC for oral administration as a percentage of AUC for iv)): 100%
Structure (SMILES): O=C1CCC2Oc3cc4c(cc3CN12)OCO4 (centres unmarked) [Compound 1, 5a,6,7,8-Tetrahydro-1,3-dioxolo[4,5-g]pyrrolo[2,1-b][1,3]benzoxazine-8(10H)-one]
EPSP Response (percentage increase in the area of the EPSP response) (AMPA receptors [3]; 300 μM): 20% and 25%

Structure (SMILES): O=C1CCC2Oc3cc4c(cc3CN12)OCCO4 (centres unmarked) [Compound 2, 6a,7,8,9-Tetrahydro-1,4-dioxin[2,3-g]pyrrolo[2,1-b][1,3]benzoxazine-9(11H)-one]
minimal effective dose [5]: 0.1 mg/kg | EPSP Response (percentage increase in the area of the EPSP response) (AMPA receptors [3]; 30 μM): 20%

Structure (SMILES): O=C1CCC2Oc3cc4c(cc3C(=O)N12)OCO4 (centres unmarked) [Compound 4, 5a,6,7,8-Tetrahydro-1,3-dioxolo[4,5-g]pyrrolo[2,1-b][1,3]benzoxazine-8,10(10H)-dione]
Activity in the slice model, in words (AMPA receptors [3]; 300 μM): inactive | EPSP Response (percentage increase in the area of the EPSP response) (AMPA receptors [3]; 300 μM): 0%
